Assay results as given in patent US8163909B2, “Substituted hydroxyethyl amine compounds as beta-secretase modulators and methods of use” (Amgen Inc., priority 2007, dated 2012).
Where two headings read alike, the source gives them in different places.

Columns and labels:
[1] = biological target: Beta Secretase enzyme (BACE) (Homo sapiens, UniProt P56817); experiment: In vitro enzymatic BACE FRET (fluorescence resonance energy transfer) assay; assay type: biochemical;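 note: fluorescence read after 1 h with 50 nM quenched peptide substrate spanning the BACE cleavage site, in pH 4.2 acetate buffer containing 10% DMSO and nonionic detergent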
[2] = test system: Aβ40 in conditioned medium of cells stably expressing Amyloid Precursor Protein (APP); experiment: In vitro BACE cell-based assay (Aβ40 in conditioned medium, sandwich ELISA);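 note: compounds added as a dilution series, secreted peptide quantified by europium time-resolved fluorescence readout, potency fitted from percent of control versus compound concentration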
[3] = BACE enzyme assay, read-out: BACE1 FRET assay (IC50)
[4] = Homo sapiens, HEK293, HEK cells, cell-based assay, read-out: HEK cell assay (IC50)
[5] = BACE enzyme FRET assay, read-out: BACE1 FRET assay (IC50)
[6] = BACE enzyme assay, IC50's in uM, read-out: BACE1 FRET assay
[7] = Table 1, read-out: BACE1 FRET assay
[8] = Homo sapiens, HEK293, Table 1, HEK cells, read-out: HEK cell assay
[9] = HEK cells, cell-based assay, read-out: HEK cell assay (IC50)

Beta Secretase enzyme (BACE), sequence (P56817 46-501): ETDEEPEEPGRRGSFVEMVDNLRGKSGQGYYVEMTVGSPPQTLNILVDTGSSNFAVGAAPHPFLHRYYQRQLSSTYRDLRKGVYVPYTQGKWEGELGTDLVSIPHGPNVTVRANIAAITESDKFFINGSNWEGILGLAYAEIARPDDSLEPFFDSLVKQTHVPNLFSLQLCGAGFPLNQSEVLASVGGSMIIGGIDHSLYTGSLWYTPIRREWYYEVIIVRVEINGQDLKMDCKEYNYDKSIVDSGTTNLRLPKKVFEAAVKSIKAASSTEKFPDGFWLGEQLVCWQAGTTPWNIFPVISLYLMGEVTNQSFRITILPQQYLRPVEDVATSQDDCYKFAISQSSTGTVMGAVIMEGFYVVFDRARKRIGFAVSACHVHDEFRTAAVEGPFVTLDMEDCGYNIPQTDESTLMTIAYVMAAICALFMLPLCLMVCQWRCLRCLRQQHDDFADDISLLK

Row | IC50 [1, 3] [µM] | IC50 [2, 4] [µM] | IC50 [1, 5] [µM] | SMILES | also measured
1 | 0.364 | 0.171 |  | COC(C(=O)N[C@@H](Cc1ccc(F)cc1)[C@H](O)CN[C@H]1CC2(CCC2)Oc2ncc(CC(C)(C)C)cc21)C(F)(F)F (some centres unmarked) [compound 59] | 
2 |  | 1.25 | 7.47 | COCC(=O)N[C@@H](Cc1ccc2c(c1)OCO2)[C@H](O)CN[C@H]1CC2(CCC2)Oc2cnc(C(F)(F)F)cc21 [compound 266] | 
3 | 0.0558 | 0.138 |  | CO[C@H](C)C(=O)N[C@@H](Cc1ccc(Cl)c(F)c1)[C@H](O)CN[C@H]1CC2(CCC2)Oc2ncc(CC(C)(C)F)cc21 [compound 70] | 
4 |  |  |  | COCC(=O)N[C@@H](Cc1cc(F)cc(-c2nccn2C)c1)[C@H](O)CN[C@H]1CC2(CCC2)Oc2ncc(CC(C)(C)C)cc21 [compound 740, N-((1S,2R)-3-(((4′S)-6′-(2,2-dimethylpropyl)-3′,4′-dihydrospiro[cyclobutane-1,2′-pyrano[2,3-b]pyridin]-4′-yl)amino)-1-(3-fluoro-5-(1-methyl-1H-imidazol-2-yl)benzyl)-2-hydroxypropyl)-2-methoxyacetamide] | IC50 ([1]; BACE enzyme assay IC50, read-out: BACE1 FRET assay): 0.051 µM; IC50 ([2]; Homo sapiens, HEK293, HEK cell-based assay IC50, read-out: HEK cell assay): 0.006 µM
5 | 0.0291 | 0.0605 |  | CO[C@H](C)C(=O)N[C@@H](Cc1ccc(F)c(Cl)c1)[C@H](O)CN[C@H]1CC2(CCC2)Oc2ncc(CC(C)(C)F)cc21 [compound 72] | 
6 | 0.00495 | 0.0792 |  | CC(C)(C)Cc1cnc2c(c1)[C@@H](NC[C@@H](O)[C@H](Cc1cc(F)cc(F)c1)NC(=O)OCc1cncs1)CC1(CCC1)O2 [compound 93] | 
7 |  |  |  | CCC(=O)N[C@@H](Cc1ccc2c(c1)OCO2)[C@H](O)CN[C@H]1CC2(CCC2)Oc2ncc(CC(C)(C)C)cc21 [compound 828] | IC50 [1, 6]: 0.012 µM; IC50 ([2]; Homo sapiens, HEK293, HEK cell-based assay, IC50's in uM, read-out: HEK cell assay): 0.014 µM
8 |  | 0.0168 | 0.00613 | COCC(=O)N[C@@H](Cc1ccc2c(c1)OCO2)[C@H](O)CN[C@H]1CC2(CCC2)Oc2ncc(CC(C)(C)C)cc21 [compound 282] | 
9 |  | 0.00756 | 0.00615 | CO[C@H](C)C(=O)N[C@@H](Cc1cc(F)cc(F)c1)[C@H](O)CN[C@H]1CC2(CCC2)Oc2ncc(CC(C)(C)C(F)F)cc21 [compound 228] | 
10 |  |  |  | COCC(=O)N[C@@H](Cc1ccc(F)c(Br)c1)[C@H](O)CN[C@H]1CC2(CCC2)Oc2ncc(CC(C)(C)C)cc21 [compound 352] | IC50 [1, 7]: 0.00371 µM; IC50 [2, 8]: 0.0176 µM
11 |  |  |  | COC(=O)N[C@@H](Cc1ccc2c(c1)OCO2)[C@H](O)CN[C@H]1CC2(CCC2)Oc2ncc([C@H](F)C(C)(C)C)cc21 [compound 359] | IC50 [1, 7]: 0.199 µM; IC50 [2, 8]: 0.208 µM
12 |  |  |  | C#Cc1cc(C[C@H](NC(=O)COC)[C@H](O)CN[C@H]2CC3(CCC3)Oc3ncc(CC(C)(C)C)cc32)cc(-c2nccs2)c1 [compound 889] | IC50 [1, 6]: 0.653 µM; IC50 ([2]; Homo sapiens, HEK293, cell-based assay, HEK cells, IC50's in uM, read-out: HEK cell assay): 0.989 µM
13 | 0.00449 | 0.00763 |  | COc1cc(C[C@H](NC(C)=O)[C@H](O)CN[C@H]2CC3(CCC3)Oc3ncc(CC(C)(C)C)cc32)ccc1F [compound 78] | 
14 |  |  |  | CO[C@H](C)C(=O)N[C@@H](Cc1ccc2c(c1)OCO2)[C@H](O)CN[C@H]1CC2(CCC2)Oc2ncc(C[C@@H](C)C(F)(F)F)cc21 [compound 342] | IC50 [1, 7]: 0.175 µM; IC50 [2, 8]: 0.343 µM
15 |  | 0.0113 | 0.0065 | COCC(=O)NC(Cc1ccc(F)cc1)C(O)CNC1CC2(CC(O)C2)Oc2ncc(CC(C)C)cc21 [compound 249, N-((1S,2R)-1-((4-fluorophenyl)methyl)-2-hydroxy-3-(((1s,3S,4′S)-3-hydroxy-6′-(2-methylpropyl)-3′,4′-dihydrospiro[cyclobutane-1,2′-pyrano[2,3-b]pyridin]-4′-yl)amino)propyl)-2-(methyloxy)acetamide] | 
16 |  | 0.575 | 0.102 | CO[C@@H](C)C(=O)N[C@@H](Cc1ccc2c(c1)OC(F)(F)O2)[C@H](O)CN[C@H]1CC2(CCC2)Oc2ncc(CC(C)(C)C)cc21 [compound 296] | 
17 | 0.00701 | 0.016 |  | CC(=O)N[C@@H](Cc1ccc2c(c1)OCO2)[C@H](O)CN[C@H]1CC2(CCC2)Oc2ncc([C@H](F)C(C)(C)C)cc21 [compound 182] | 
18 |  | 0.382 | 0.0414 | COCC(=O)N[C@@H](Cc1ccc2c(c1)OC(F)(F)O2)[C@H](O)CN[C@H]1CC2(CCC2)Oc2ncc(CC(C)(C)C)cc21 [compound 291] | 

Row | IC50 [1, 3] [µM] | IC50 [2, 4] [µM] | IC50 [1, 5] [µM] | SMILES | also measured
19 | 0.0398 | 0.143 |  | COCC(=O)NC(Cc1ccc2c(c1)OCO2)C(O)CNC1CC2(CC(C)C2)Oc2ncc(CC(C)C)cc21 [compound 133, N-((1S,2R)-1-(1,3-benzodioxol-5-ylmethyl)-2-hydroxy-3-(((1s,3R,4′S)-3-methyl-6′-(2-methylpropyl)-3′,4′-dihydrospiro[cyclobutane-1,2′-pyrano[2,3-b]pyridin]-4′-yl)amino)propyl)-2-(methyloxy)acetamide] | 
20 |  | 0.976 | 0.0107 | CC(=O)NC(Cc1ccc(F)cc1)C(O)CNC1CC2(CC(C(=O)O)C2)Oc2ncc(CC(C)(C)C)cc21 [compound 263, (1s,3R,4′S)-4′-(((2R,3S)-3-(acetylamino)-4-(4-fluorophenyl)-2-hydroxybutyl)amino)-6′-(2,2-dimethylpropyl)-3′,4′-dihydrospiro[cyclobutane-1,2′-pyrano[2,3-b]pyridine]-3-carboxylic acid] | 
21 |  | 0.0264 | 0.00705 | CC(=O)N[C@@H](Cc1ccc(F)c(Cl)c1)[C@H](O)CN[C@H]1CC2(CCC2)Oc2ncc(CC(C)(C)C(F)F)cc21 [compound 215] | 
22 |  | 0.0314 | 0.00215 | COCC(=O)N[C@@H](Cc1ccc(Cl)cc1)[C@H](O)CN[C@H]1CC2(CCC2)Oc2ncc(CC(C)(C)C)cc21 [compound 212] | 
23 | 0.0364 | 0.0546 |  | CO[C@@H](C)C(=O)N[C@@H](Cc1ccc(F)cc1)[C@H](O)CN[C@H]1CC2(CCC2)Oc2c(F)cc(CC(C)(C)C#N)cc21 [compound 173] | 
24 |  | 0.058 | 0.0379 | CC(=O)N[C@@H](Cc1cc(F)c2c(c1)OCO2)[C@@H](O)CN[C@H]1CC2(CCC2)Oc2ncc(CC(C)(C)C)cc21 [compound 305, N-((1S,2S)-3-(((4′S)-6′-(2,2-dimethylpropyl)-3′,4′-dihydrospiro[cyclobutane-1,2′-pyrano[2,3-b]pyridin]-4′-yl)amino)-1-((7-fluoro-1,3-benzodioxol-5-yl)methyl)-2-hydroxypropyl)acetamide] | 
25 |  |  |  | CC(=O)N[C@@H](Cc1ccc2c(c1)OCO2)[C@H](O)CN[C@H]1CC2(CCC2)Oc2nc(F)c(CC(C)C)cc21 [compound 338] | IC50 [1, 7]: 0.109 µM; IC50 [2, 8]: 0.252 µM
26 | 0.117 | 0.0828 |  | COCC(=O)N[C@@H](Cc1ccc2c(c1)OCO2)[C@H](O)CN[C@H]1CC2(CCC2)Oc2ncc(CC(C)(C)C#N)cc21 [compound 87] | 
27 |  | 0.455 | 0.0539 | CC(C)(C)Cc1cnc2c(c1)[C@@H](NC[C@@H](O)[C@H](Cc1ccc3c(c1)OCO3)NC(=O)C(F)(F)F)CC1(CCC1)O2 [compound 288] | 
28 | 0.00325 | 0.00621 |  | COCC(=O)N[C@@H](Cc1cc(F)cc(F)c1)[C@H](O)CN[C@H]1CC2(CCC2)Oc2ncc(CC(C)(C)C#N)cc21 [compound 92] | 
29 | 0.0101 |  |  | COC(C)C(=O)NC(Cc1cc(F)cc(F)c1)C(O)CNC1CC2(CCC2)Oc2ncc(CC(C)(C)C)cc21 [compound 103, (S)—N-((2S,3R)-1-(3,5-difluorophenyl)-3-hydroxy-4-((S)-6-neopentyl-3,4-dihydrospiro[cyclobutane-1,2H-pyrano[2,3-b]pyridin-4-ylamino)butan-2-yl)-2-methoxypropanamide] | IC50 [2, 9]: 0.0268 µM
30 |  | 0.00527 | 0.00415 | CC(=O)N[C@@H](Cc1cc(F)cc(F)c1)[C@H](O)CN[C@H]1CC2(CCC2)Oc2ncc(CC(C)(C)C(F)F)cc21 [compound 226] | 
31 |  |  | 0.242 | COC(C)C(=O)NC(Cc1ccc2c(c1)OCO2)C(O)CNC1CC2(CC(O)C2)Oc2ccc(CC(C)(C)C)cc21 [compound 269, (2R)—N-((1S,2R)-1-(1,3-benzodioxol-5-ylmethyl)-3-(((2r,3′R,4S)-6-(2,2-dimethylpropyl)-3′-hydroxy-3,4-dihydrospiro[chromene-2,1′-cyclobutan]-4-yl)amino)-2-hydroxypropyl)-2-(methyloxy)propanamide] | IC50 [2, 9]: 0.103 µM
32 |  |  |  | CC(C)(C)Cc1cnc2c(c1)[C@@H](NC[C@@H](O)[C@H](Cc1ccc3c(c1)OCO3)NC(=O)[C@@H]1CCCO1)CC1(CCC1)O2 [compound 453] | IC50 ([1]; Table 2, read-out: BACE1 FRET assay): 0.022 µM; IC50 ([2]; Homo sapiens, HEK293, Table 2, HEK cells, read-out: HEK cell assay): 0.037 µM
33 | 0.0236 | 0.083 |  | CC(=O)N[C@@H](Cc1ccc2c(c1)OCO2)[C@H](O)CN[C@H]1CC2(CC(F)(F)C2)Oc2ncc(CC(C)(C)C)cc21 [compound 55] | 
34 | 0.593 | > 10 |  | CC(=O)Nc1cnc2c(c1)[C@@H](NC[C@@H](O)[C@H](Cc1ccc(F)cc1)NC(C)=O)CC1(CCC1)O2 [compound 83, N-((1S,2R)-3-(((4′S)-6′-(acetylamino)-3′,4′-dihydrospiro[cyclobutane-1,2′-pyrano[2,3-b]pyridin]-4′-yl)amino)-1-((4-fluorophenyl)methyl)-2-hydroxypropyl)acetamide] | 
35 | 0.0336 | 0.0784 |  | CC(C)(C)Cc1cnc2c(c1)[C@@H](NC[C@@H](O)[C@H](Cc1ccc(F)cc1)NC(=O)[C@@H](O)C(F)(F)F)CC1(CCC1)O2 [compound 69] | 
36 | 0.082 | 0.0575 |  | CNc1nc(CC(C)(C)C)cc2c1OC1(CCC1)C[C@@H]2NC[C@@H](O)[C@H](Cc1ccc(F)cc1)NC(=O)[C@@H](C)OC [compound 137] | 

Row | SMILES | IC50 [1, 3] [µM] | IC50 [2, 4] [µM] | IC50 [1, 5] [µM] | also measured
37 | COCC(=O)N[C@@H](Cc1ccc2c(c1)OCO2)[C@@H](CN[C@H]1CC2(CCC2)Oc2ncc([C@H](F)C(C)(C)C)cc21)OC [compound 196] |  | 3.99 | 2.64 | 
